Test results reported in patent publication US8865623B2, “Herbicidally active cyclic diones and derivatives thereof, processes for their preparation, compositions, and method of controlling weeds” (Syngenta Limited, priority 2009, dated 2014).

How the values were obtained:
Type in all cases: in vivo
[1] = system: Echinochloa crus-galli (ECHCG); experiment: Pre-emergence herbicidal activity, glasshouse pot test; settings: Echinochloa crus-galli, 312 h; Rate 250 g/ha; pre-emergence spray; evaluated after 13 days; read-out: Pre-emergence activity ECHCG (100=total damage to plant; 0=no damage to plant)
Procedure, shortened: (§1)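 Pot-grown plants in standard soil received a spray one day post-sowing (pre-emergence) or after eight days' growth (post-emergence). Scoring took place 13 days later on a 0–100 scale, 100 meaning total damage.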

[2] = system: Alopecurus myosuroides (ALOMY); experiment: as above; settings: Alopecurus myosuroides, 312 h; Rate 250 g/ha; pre-emergence spray; evaluated after 13 days; read-out: Pre-emergence activity ALOMY (100=total damage to plant; 0=no damage to plant)
Procedure, shortened: as §1

Lolium perenne (LOLPE) [3] = experiment: as above; settings: Lolium perenne, 312 h; Rate 250 g/ha; pre-emergence spray; evaluated after 13 days; read-out: Pre-emergence activity LOLPE (100=total damage to plant; 0=no damage to plant)
Procedure, shortened: as §1

Avena fatua (AVEFA) [4] = experiment: as above; settings: Avena fatua, 312 h; Rate 250 g/ha; pre-emergence spray; evaluated after 13 days; read-out: Pre-emergence activity AVEFA (100=total damage to plant; 0=no damage to plant)
Procedure, shortened: as §1

[5] = system: Echinochloa crus-galli (ECHCG); experiment: Post-emergence herbicidal activity, glasshouse pot test; settings: Echinochloa crus-galli, 312 h, rate 250 g/ha, evaluated after 13 days, glasshouse, read-out: Post-emergence activity ECHCG (100=total damage to plant; 0=no damage to plant)
Procedure, shortened: as §1

[6] = system: Alopecurus myosuroides (ALOMY); experiment: as above; settings: Alopecurus myosuroides, 312 h, rate 250 g/ha, evaluated after 13 days, glasshouse, read-out: Post-emergence activity ALOMY (100=total damage to plant; 0=no damage to plant)
Procedure, shortened: as §1

Lolium perenne (LOLPE) [7] = experiment: as above; settings: Lolium perenne, 312 h, rate 250 g/ha, evaluated after 13 days, glasshouse, read-out: Post-emergence activity LOLPE (100=total damage to plant; 0=no damage to plant)
Procedure, shortened: as §1

Avena fatua (AVEFA) [8] = experiment: as above; settings: Avena fatua, 312 h, rate 250 g/ha, evaluated after 13 days, glasshouse, read-out: Post-emergence activity AVEFA (100=total damage to plant; 0=no damage to plant)
Procedure, shortened: as §1

Structure (SMILES) | pest or weed control at 250 g/ha [1] [%] | pest or weed control at 250 g/ha [2] [%] | pest or weed control at 250 g/ha (Lolium perenne (LOLPE) [3]) [%] | pest or weed control at 250 g/ha (Avena fatua (AVEFA) [4]) [%] | pest or weed control at 250 g/ha [5] [%] | pest or weed control at 250 g/ha [6] [%] | pest or weed control at 250 g/ha (Lolium perenne (LOLPE) [7]) [%] | pest or weed control at 250 g/ha (Avena fatua (AVEFA) [8]) [%]
CCc1ccc(Oc2nc(C)c(Cl)c(N)n2)cc1C1=C(O)C(C)(C)OC(C)(C)C1=O [Example A-81] | 90 | 30 | 40 | 10 | 70 | 50 | 30 | 50
CCc1ccc(Oc2cnc3cc(Cl)ccc3n2)cc1C1=C(O)CC(C)(C)CC1=O [Example A-82] | 100 | 70 | 100 | 90 | 100 | 100 | 90 | 100
CCc1ccc(Oc2ccc(C(F)(F)F)cn2)cc1C1=C(O)CC(C)(C)CC1=O [Example A-83] | 100 | 70 | 90 | 90 | 100 | 90 | 60 | 100
CCc1ccc(Oc2ncc(Cl)cc2Cl)cc1C1=C(O)CC(C)(C)CC1=O [Example A-84] | 100 | 70 | 100 | 60 | 100 | 100 | 90 | 50
CCc1ccc(Oc2ncc(Cl)cc2F)cc1C1=C(O)CC(C)(C)CC1=O [Example A-85] | 100 | 100 | 100 | 100 | 100 | 100 | 90 | 90
CCc1ccc(Oc2ncc(C(F)(F)F)cc2Cl)cc1C1=C(O)CC(C)(C)CC1=O [Example A-86] | 100 | 90 | 100 | 100 | 100 | 90 | 70 | 100
CCc1ccc(Oc2ccc(C#N)cc2F)cc1C1=C(O)CC(C)(C)CC1=O [Example A-87] | 60 | 30 | 40 | 20 | 80 | 70 | 40 | 40
CCc1ccc(Oc2ccc(C(F)(F)F)cc2)cc1C1=C(O)C(C)(C)OC(C)(C)C1=O [Example A-97] | 100 | 80 | 100 | 90 | 100 | 100 | 90 | 90
CCc1ccc(Oc2cc(Cl)ncn2)cc1C1=C(O)C(C)(C)OC(C)(C)C1=O [Example A-98] | 80 | 40 | 60 | 20 | 100 | 70 | 30 | 60
CCc1ccc(Oc2ccc(C(F)(F)F)cc2Cl)cc1C1=C(O)C(C)(C)OC(C)(C)C1=O [Example A-99] | 100 | 60 | 100 | 30 | 100 | 80 | 80 | 90
CCc1ccc(Oc2ccc(C(F)(F)F)cc2C#N)cc1C1=C(O)C(C)(C)OC(C)(C)C1=O [Example A-100] | 100 | 40 | 80 | 40 | 90 | 80 | 40 | 80
CCc1ccc(Oc2ccc(C(F)(F)F)c(Cl)c2)cc1C1=C(O)C(C)(C)OC(C)(C)C1=O [Example A-101] | 90 | 60 | 90 | 80 | 100 | 100 | 100 | 90
CCc1ccc(Oc2cncc(Cl)n2)cc1C1=C(O)C(C)(C)OC(C)(C)C1=O [Example A-102] | 10 | 0 | 20 | 0 | 40 | 10 | 20 | 0
CCc1ccc(Oc2nccnc2Cl)cc1C1=C(O)C(C)(C)OC(C)(C)C1=O [Example A-103] | 30 | 10 | 40 | 0 | 40 | 10 | 20 | 0
CCc1ccc(Oc2cnc3ccc(Br)cc3n2)cc1C1=C(O)C(C)(C)OC(C)(C)C1=O [Example A-104] | 100 | 90 | 100 | 30 | 100 | 90 | 90 | 80
CCc1ccc(Oc2nc3ccccc3s2)cc1C1=C(O)C(C)(C)OC(C)(C)C1=O [Example A-105] | 100 | 70 | 100 | 10 | 90 | 90 | 90 | 10
CCc1ccc(Oc2nc3ccc(Cl)cc3s2)cc1C1=C(O)C(C)(C)OC(C)(C)C1=O [Example A-106] | 90 | 60 | 100 | 20 | 90 | 90 | 80 | 50
CCc1ccc(Oc2ncc(Cl)cn2)cc1C1=C(O)C(C)(C)OC(C)(C)C1=O [Example A-107] | 100 | 90 | 100 | 80 | 100 | 80 | 40 | 80
CCc1ccc(Oc2nccc(C(F)(F)F)n2)cc1C1=C(O)C(C)(C)OC(C)(C)C1=O [Example A-108] | 80 | 40 | 70 | 40 | 100 | 60 | 50 | 70
CCc1ccc(Oc2ncc(Br)cn2)cc1C1=C(O)C(C)(C)OC(C)(C)C1=O [Example A-109] | 100 | 80 | 80 | 70 | 100 | 90 | 90 | 90
CCc1ccc(Oc2ccc(Cl)cc2Cl)cc1C1=C(O)CCC(C)(C)C1=O [Example A-111] | 40 | 10 | 40 | 30 | 40 | 10 | 50 | 0
